Where two headings read alike, the source gives them in different places.
Assays:
HT-29 cells [1] = experiment: HT-29 cell death (MTT) with DNA damaging agents, alone or with […]; format: cell-based, human; details: for apoptosis as relative cell death, low doses: 0.5 μg/mL DOX, CIS, 1 μg/mL 5-Fu, 0.6 μg/mL IRINO, 24 h pretreatment then 24 h drug alone or with TRAILPEG 1 μg/mL; for TRAIL-induced apoptosis, sub-lethal dose combined with TRAILPEG versus drug alone: DOX 2, 5-FU 10, CIS 2, IRINO 3 μg/mL
Experimental: A total of 1×10^4 cells were plated in 0.1 mL in 96-well flat bottom plates and incubated for 24 h before being exposed to various stimuli. After incubation for the indicated times, […] MTT solution was added to each well and incubated for 1 h. After removal of the medium, 200 μL of DMSO was added to each well to dissolve the formazan crystals. The absorbance at 540 nm was determined using a microplate reader (Bio-Tek Instruments, Inc, Winooski, Vt.). Triplicate wells were assayed for each condition.

DR5 [2] = details: HT-29 cells, DOX 24 h, qPCR
Experimental: (§1) Total cellular RNA was purified from HT-29 cells using Trizol reagent (Life Technology) and subjected to amplification with SuperScript One-Step RT-PCR system (Life Technology). Real-time PCR was carried out using a StepOne™ Real-Time PCR System according to the manufacturer instructions (Life Technology). The mean cycle threshold value (Ct) from triplicate samples was used to calculate the gene expression. β-actin was used as an internal control to normalize the variability in expression.

DR4 [3] = details: HT-29 cells, DOX 24 h, qPCR
Experimental: as §1

[4] = DOX distribution in HT-29 xenograft tumors; format: in vivo, mice; details: HT-29 xenografts, single i.v. 7 mg/kg DOX-based
Experimental: Mice bearing HT-29 xenograft tumors were intravenously administered with DOX (7 mg/kg) and HAC/DOX (containing 7 mg/kg equivalent doxorubicin) when tumors reached 300 mm^3. At each selected time point, 3 mice in one group were euthanized by cervical dislocation. Whole blood was collected via cardiac puncture with a heparinized syringe. Tumors were dissected out and frozen at −70° C. immediately. Plasma samples were isolated from whole blood by centrifugation at 3000 g for 5 min. Tissues homogenates were prepared in 800 μL water using a Polytron homogenizer (Brinkman Instruments, Mississauga, Ontario, Canada), and then 200 μL of H2SO4 was added to the tissue homogenates. The solutions were then digested for 2 h at 60° C. After the vials cooled to room temperature, 100 μL of AgNO3 was added. Then the samples were centrifuged at 12,000 g for 10 min, and the supernatant was counted in a fluorospectrometer (RF-5301, Shimadzu) at an excitation wavelength of 500 nm and emission wavelength of 558 nm. The concentration of doxorubicin in each tissue was calculated based on a calibration curve. The calibration curve was linear over the 0.02 and 2.00 μg/mL range with a correlation coefficient of R^2=0.9993.

HT-29 cells [5] = experiment: Western blotting of apoptosis markers in HT-29 cells; format: cell-based, human; details: western blot
Text: (§2) Immunoblots were visualized by an enhanced chemiluminescence method.

[6] = Survival of HT-29 xenograft mice during treatment; format: in vivo, BALB/c athymic mice; details: high dose 7 mg/kg free DOX (with TRAILPEG), HT-29 xenografts
Experimental: The antitumor effects of […] after HAC/DOX sensitizing were investigated in HT-29 tumor bearing mice (n=5). Briefly, freshly harvested HT-29 cells (5×10^6 cells/mouse) were inoculated s.c. into BALB/c athymic mice. Treatment was initiated when the tumors reached a mean volume of 150 mm^3. Mice were treated with three rounds of DOX or HAC/DOX (7 mg/kg, i.v.) combined with […] (8 mg/kg, i.v.) for 10 days. The tumors were analyzed and calculated as described above. (n=5).

DR5 [7] = experiment: Western blot of DR5 protein in HT-29 cells; format: cell-based, human; details: DOX 2 μg/mL, regardless of TRAILPEG
Text: as §2

Casp-8, Casp-3 = experiment: Western blot of cleaved caspases in HT-29 tumors in vivo; set-up: species or system mice; details: followed by TRAILPEG, HT-29 xenografts
Text: as §2

[8] = tested on: HT-29, MDA-MB-231, A549, PC3 cells; experiment: Cleaved PARP-1 western blot in TRAIL-resistant tumor cell lines; format: cell-based, human; details: HT-29, MDA-MB-231, A549, PC3 (and HCT116 for the combination)
Text: (§3) Anti-caspase-8 (Cell Signaling Technology, Danvers, Mass., #9746), anti-cleaved PARP-1 (Cell Signaling Technology, #5625), anti-cleaved caspase-3 (Cell Signaling Technology, #9664), anti-cleaved caspase-9 (Cell Signaling Technology, #7237), anti-CD44 (Cell Signaling Technology, #5640), anti-p-JNK (Cell Signaling Technology, #4668), anti-p-p53 (Ser15 Cell Signaling Technology, #9284), anti-BCl-2 (Cell Signaling Technology, #2870), anti-p-BCL-2 (Cell Signaling Technology, #2875), anti-BCL-XL (Cell Signaling Technology, #2764), anti-DR4 (Abcam, Cambridge, Mass., #13890), anti-DR5 (Abcam, #47179), anti-c-Jun (Santa Cruz Biotechnology, Santa Cruz, Calif., sc-1694), or anti-β-actin (sc-47778) were used in the Western blot analysis. In generally, cells were lysed and sonicated briefly in ice-cold PBS buffer (1 mM PMSF, and 1 μg/ml each of aprotinin, leupeptin, and pepstatin A). Cell lysates were clarified by centrifugation, resolved by SDS-PAGE, and proteins on gels were transferred to nitrocellulose (Bio-Rad, Hercules, Calif.) using a semidry blotter (Bio-Rad). The membrane was blocked with 3% BSA in TBST (10 mM Tris-Cl, pH 8.0, 150 mM NaCl, 0.05% Tween-20) and incubated overnight at 4° C. with primary antibodies. Immunoblots were visualized by an enhanced chemiluminescence method.

DR4 [9] = details: HT-29 cells, DOX 2 μg/mL
Text: as §3

[10] = rodents; cited from earlier work
[11] = humans; cited from earlier work

O=c1[nH]cc(F)c(=O)[nH]1 [5-FU, 5-fluorouracil]
apoptosis as relative cell death, low doses (HT-29 cells [1]): did not induce apoptosis | TRAIL-induced apoptosis, sub-lethal dose combined with TRAILPEG versus drug alone (HT-29 cells [1]): enhanced TRAIL-induced apoptosis was observed

COc1cccc2c1C(=O)c1c(O)c3c(c(O)c1C2=O)C[C@@](O)(C(=O)CO)C[C@@H]3O[C@H]1C[C@H](N)[C@H](O)[C@H](C)O1 [DOX, doxorubicin]
increase of DR5 mRNA compared to untreated cells (DR5 [2]): 60% | DR4 mRNA levels (DR4 [3]): did not change | DOX concentration in tumor over time [4]: gradually decreased with time | phosphorylation of p53 and activation of c-jun (HT-29 cells [5]): led to the phosphorylation of p53 and the activation of c-jun | mice died during the treatment cycle [6]: 60% | upregulation of DR5 expression at the protein level (DR5 [7]): 3 to 4 fold | Casp-3 activation vs. control (Casp-8, Casp-3; high dose 7 mg/kg DOX-based): 2 fold | Casp-3 activation vs. control (Casp-8, Casp-3; low dose 2 mg/kg DOX-based): 2 fold | apoptosis as relative cell death, low doses (HT-29 cells [1]): did not induce apoptosis | TRAIL-induced apoptosis, sub-lethal dose combined with TRAILPEG versus drug alone (HT-29 cells [1]): enhanced TRAIL-induced apoptosis was observed | cleaved PARP-1 expression [8]: induced low levels of cleaved PARP-1 | upregulation of DR4 expression at the protein level (DR4 [9]): not DR4

CCc1c2c(nc3ccc(OC(=O)N4CCC(N5CCCCC5)CC4)cc13)-c1cc3c(c(=O)n1C2)COC(=O)[C@]3(O)CC [IRINO, irinotecan]
apoptosis as relative cell death, low doses (HT-29 cells [1]): did not induce apoptosis | TRAIL-induced apoptosis, sub-lethal dose combined with TRAILPEG versus drug alone (HT-29 cells [1]): enhanced TRAIL-induced apoptosis was observed

Oc1c2ccccc2c2c3c(cccc13)N=N2 [SP600125]
reduction of DOX and TRAILPEG-induced cell death (HT-29 cells [1]; SP600125 20 μM pre-treatment): 35%

rhTRAIL: recombinant human tumor necrosis factor (TNF)-related apoptosis inducing ligand
half-life in physiological conditions [10]: 3-5 min | half-life in physiological conditions [11]: less than 30 minutes

From US20180050090A1, “COMPOSITIONS AND METHODS FOR SENSITIZING CELLS TO TRAIL-INDUCED APOPTOSIS” (THE JOHNS HOPKINS UNIVERSITY, priority 2008, published 2018)
